Reference: patent publication US11371055B2, “Herbicide resistance genes” (CORTEVA AGRISCIENCE LLC, priority 2005, dated 2022)
Several values for one entry are separate records, joined by “and”; a condition that tells them apart may be missing. Equal values may be shown once.

Columns and labels:
[1] = test system: T1 AAD-12 (v1) rice lines pDAB4101(20)003 and pDAB4101(27)002; assay: 2,4-D DMA tolerance in T1 rice; assay type: in vivo, Oryza sativa
Source text: The following T1 AAD-12 (v1) single segregating locus lines were planted into 3-inch pots containing Metro Mix media: pDAB4101(20)003 and pDAB4101(27)002. At 2-3 leaf stage were sprayed with 140 g ae/ha imazethapyr. Nulls were eliminated and individuals were sprayed at V3-V4 stage in the track sprayer set to 187 L/ha at 1120, 2240 or 4480 g ac/ha 2,4-D DMA (2×, 4×, and 8× typical commercial use rates, respectively). Plants were graded at 7 and 14 DAT and compared to untransformed commercial rice cultivar. ‘Lamont,’ as negative control plants.

[2] = test system: PAT-only transformed soybean plants; assay: 2,4-D leaf paint (leaf flip assay) on PAT-only transformed soybean; assay type: in vivo, Glycine max; set-up: key: 1 = Flip; 0 = No Flip; conditions: event D-2-3 (pDAB4499, PAT, CsVMV)
Source text: Plants that are transferred to the greenhouse can be assayed for the presence of an active PAT gene further with a non-destructive manner by painting a section of leaf of the T0 primary transformant, or progeny thereof, with a glufosinate solution [0.05-2% v/v Liberty Herbicide, preferably 0.25-1.0% (v/v),=500-2000 ppm glufosinate, Bayer Crop Science]. Depending on the concentration used, assessment for glufosinate injury can be made 1-7 days after treatment. Plants can also be tested for 2,4-D tolerance in a non-destructive manner by selective application of a 2,4-D solution in water (0.25-1% v/v commercial 2,4-D dimethylamine salt formulation, preferably 0.5% v/v=2280 ppm 2,4-D ae) to the terminal leaflet of the newly expanding trifoliolate one or two, preferably two, nodes below the youngest emerging trifolioate. […] Glyphosate resistance (in plants transformed with constructs that contain EPSPS) or another glyphosate tolerance gene can be assessed in the T1 generation by postemergence applications of glyphosate with a dose range from 280-2240 g ae/ha glyphosate. […] Individual T0 plants were assessed for the presence of the coding region of the gene of interest (AAD-12 (v1) or PAT v6) and copy number. […]
A subset of the initial transformants were assessed in the T0 generation according to the methods above. […]

[3] = test system: AAD-12 transformed T0 corn events; assay: Postemergence herbicide tolerance in T0 corn; assay type: in vivo, Zea mays; conditions: 2240 g ae/ha 2,4-D
Procedure: Four T0 events were allowed to acclimate in the greenhouse and were grown until 2-4 new, normal looking leaves had emerged from the whorl (i.e., plants had transitioned from tissue culture to greenhouse growing conditions). Plants were grown at 27° C. under 16 hour light:8 hour dark conditions in the greenhouse. Plants were then treated with commercial formulations of either Pursuit® (imazethapyr) or 2,4-D Amine 4. […] Herbicide applications were made with a track sprayer at a spray volume of 187 L/ha, 50-cm spray height. Plants were sprayed with either a lethal dose of imazethapyr (70 g ae/ha) or a rate of 2,4-D DMA salt capable of significant injury to untransformed corn lines (2240 g ac/ha). A lethal dose is defined as the rate that causes >95% injury to the Hi-II inbred. Hi-II is the genetic background of the transformants of the present invention.

[4] = test system: wildtype Maverick soybeans; assay: 2,4-D spray application on wildtype soybean; assay type: in vivo, Glycine max
Source text: Plants that are transferred to the greenhouse can be assayed for the presence of an active PAT gene further with a non-destructive manner by painting a section of leaf of the T0 primary transformant, or progeny thereof, with a glufosinate solution [0.05-2% v/v Liberty Herbicide, preferably 0.25-1.0% (v/v),=500-2000 ppm glufosinate, Bayer Crop Science]. Depending on the concentration used, assessment for glufosinate injury can be made 1-7 days after treatment. Plants can also be tested for 2,4-D tolerance in a non-destructive manner by selective application of a 2,4-D solution in water (0.25-1% v/v commercial 2,4-D dimethylamine salt formulation, preferably 0.5% v/v=2280 ppm 2,4-D ae) to the terminal leaflet of the newly expanding trifoliolate one or two, preferably two, nodes below the youngest emerging trifolioate. This assay allows assessment of 2,4-D sensitive plants 6 hours to several days after application by assessment of leaf flipping or rotation >90 degrees from the plane of the adjacent leaflets. Plants tolerant to 2,4-D will not respond to 2,4-D. To plants will be allowed to self fertilize in the greenhouse to give rise to T1 seed. T1 plants (and to the extent enough T0 plant clones are produced) will be sprayed with a range of herbicide doses to determine the level of herbicide protection afforded by AAD-12 (v1) and PAT genes in transgenic soybean. Rates of 2,4-D used on T0 plants will typically comprise one or two selective rates in the range of 100-1120 g ae/ha using a track sprayer as previously described. T1 plants will be treated with a wider herbicide dose ranging from 50-3200 g ae/ha 2,4-D. Likewise, T0 and T1 plants can be screened for glufosinate resistance by postemergence treatment with 200-800 and 50-3200 g ae/ha glufosinate, respectively. Glyphosate resistance (in plants transformed with constructs that contain EPSPS) or another glyphosate tolerance gene can be assessed in the T1 generation by postemergence applications of glyphosate with a dose range from 280-2240 g ae/ha glyphosate. Analysis of protein expression will occur as described in below. Individual T0 plants were assessed for the presence of the coding region of the gene of interest (AAD-12 (v1) or PAT v6) and copy number. Determination of the inheritance of AAD-12 (v1) will be made using T1 and T2 progeny segregation with respect to herbicide tolerance as described in previous examples.
The screened plants were then sampled for molecular and biochemical analyses for the confirmation of the AAD12 (v1) genes integration, copy number, and their gene expression levels as described below and reported in Table 25.

[5] = test system: T4 Arabidopsis seed homozygous for AAD-12 (v1) spiked into wildtype (sensitive) seed; assay: AAD-12 (v1) as selectable marker with 2,4-D as selection agent; assay type: in vivo, Arabidopsis thaliana; conditions: applied 7 and 11 days after planting (DAP); Resistant or Sensitive identified 17 DAP
Procedure: The ability to use AAD-12 (v1) as a selectable marker using 2,4-D as the selection agent was analyzed initially with Arabidopsis transformed as described above. Approximately 50 T4 generation Arabidopsis seed (homozygous for AAD-12 (v1)) were spiked into approximately 5,000 wildtype (sensitive) seed. Several treatments were compared, each tray of plants receiving either one or two application timings of 2,4-D in one of the following treatment schemes: 7 DAP, 11 DAP, or 7 followed by 11 DAP. Since all individuals also contained the PAT gene in the same transformation vector, AAD-12 selected with 2,4-D could be directly compared to PAT selected with glufosinate.
Treatments were applied with a DeVilbiss spray tip as previously described. Plants were identified as Resistant or Sensitive 17 DAP.

[6] = Maverick WT individual plants (WT-5, WT-6, WT-7), spray 560 g ae/ha 2,4-D
[7] = Maverick WT individual plants (WT-10, WT-8, WT-9), spray 1120 g ae/ha 2,4-D

| SMILES | Average % injury 14 DAT ([1]; T1 pDAB4101(20)003, 1120 g ae/ha) [%] | Average % injury 14 DAT ([1]; T1 pDAB4101(20)003, 2240 g ae/ha) [%] | Average % injury 14 DAT ([1]; T1 pDAB4101(20)003, 4480 g ae/ha) [%] | Average % injury 14 DAT ([1]; T1 pDAB4101(27)002, 1120 g ae/ha) [%] | Average % injury 14 DAT ([1]; T1 pDAB4101(27)002, 2240 g ae/ha) [%] | Average % injury 14 DAT ([1]; T1 pDAB4101(27)002, 4480 g ae/ha) [%] | Leaf flip assay (18 HAT) Node N-2 [2] | % injury 14 DAT ([3]; T0 corn event 4101(0)003.001) [%] | % injury 14 DAT ([3]; T0 corn event 4101(0)003.003) [%] | % injury 14 DAT ([3]; T0 corn event 4101(0)005.001) [%] | response to herbicide spray application ([4]; 560 g ae/ha 2,4-D, 7-14 DAT) | response to herbicide spray application ([4]; 1120 g ae/ha 2,4-D) | % injury 2 DAT [4, 6] | % injury 7 DAT [4, 6] | % injury 14 DAT [4, 6] | % injury 2 DAT [4, 7] [%] | % injury 7 DAT [4, 7] | % injury 14 DAT [4, 7] [%] | optimum treatment for selection of transformed plants [5] [g ae/ha] |
| --- | --- | --- | --- | --- | --- | --- | --- | --- | --- | --- | --- | --- | --- | --- | --- | --- | --- | --- | --- |
| CNC.O=C(O)COc1ccc(Cl)cc1Cl [2,4-D DMA] | 10 | 15 | 23 | 10 | 30 | 40 |  |  |  |  |  |  |  |  |  |  |  |  |  |
| O=C(O)COc1ccc(Cl)cc1Cl [2,4-D, 2,4-dichlorophenoxyacetic acid] |  |  |  |  |  |  | 1 | 0 | 0 | 0 | severely injured | killed | 50% and 70% (2×) | 60% and 90% and 80% | 60% and 80% (2×) | 70 | 90% and 95% (2×) | 100 | 75 |
